Results taken from patent US8940739B2, “Compound of a reverse-turn mimetic and a production method and use therefor” (JW Pharmaceutical Corporation, priority 2010, dated 2015).

Tested on: MV-4-11 (human, Acute Myeloid Leukemia cell line) cells
Test: Cell growth inhibition assay, GI50 of MV-4-11
Type: cell-based
Conditions: Homo sapiens, MV4-11, 72 h, MV-4-11 cells
Method: The anti-proliferative activity (cell growth inhibition assay) of the compounds according to the present invention against AML (Acute Myeloid Leukemia) cancer cells was measured. […] The lower the GI50 value, the higher the anti-proliferative activity.
A cell growth Inhibition assay was performed to investigate the rate of inhibition of cell proliferation by the compounds of the present invention. MV-4-11 (human, Acute Myeloid Leukemia cell line) cells were cultured in Iscove's modified Dulbecco's medium (IMDM) including 10% fetal bovine serum (FBS), 1× penicillin/streptomycin (10,000 units/ml Penicillin, […] Streptomycin in 0.85% NaCl). MV-4-11 cells were harvested with the IMDM and 5×10^4 cells/well were transferred to each well of 96-well culture plates (Nunc, #167008).
The compounds of Examples 1 to 5 were exposed to serial dilution and duplicated for each concentration. For the serial dilution, the compounds of the present invention were repeatedly diluted with the same volume of media onto 96-well assay block (costar, #3956). After the dilution, each compound was added to each well.
Also, the background absorbance was measured during the treatment with the test compounds by replacing the test compound with IMDM in the negative control plate. The plates were incubated for three days (72 hours) at 37 in the humidified incubator containing 5% CO2. On the last day, 20 µl of a CellTiter 96 Aqueous One Solution (Promega #G3581) was added to the culture in each well and the plates were incubated for a few hours at 37 in the humidified incubator containing 5% CO2. After the incubation, the absorbance of each cell was measured at 490 nm using an EnVision (Perkinelmer, USA).
The GI50 values were calculated using a Prism 3.0 program.

GI50 [nM]	SMILES
17.2	C=CCN1CC(=O)N2[C@@H](Cc3ccc(O)cc3)C(=O)N(Cc3cccc4c(C(=O)N(C)Cc5ccncc5)cn(C)c34)C[C@@H]2N1C(=O)NCc1ccccc1 [Compound F-40]
6	C=CCN1CC(=O)N2[C@@H](Cc3ccc(O)cc3)C(=O)N(Cc3cccc4c(C(=O)N5CCN(Cc6cccc(C)n6)CC5)cn(C)c34)C[C@@H]2N1C(=O)NCc1ccccc1 [Compound E-31]
4.4	C=CCN1CC(=O)N2[C@@H](Cc3ccc(O)cc3)C(=O)N(Cc3cccc4c(-c5ccc(NC(=O)CCCN)cc5)cn(C)c34)C[C@@H]2N1C(=O)NCc1ccccc1 [Compound D-70]
1.7	C=CCN1CC(=O)N2[C@@H](Cc3ccc(O)cc3)C(=O)N(Cc3cccc4c(-c5ccc(NC(=O)NC6CCN(C(C)=O)CC6)cc5)cn(C)c34)C[C@@H]2N1C(=O)NCc1ccccc1 [Compound D-84]
1.3	C=CCN1CC(=O)N2[C@@H](Cc3ccc(O)cc3)C(=O)N(Cc3cccc4c(-c5ccc(NC(=O)C6CCN(C(C)=O)CC6)nc5)cn(C)c34)C[C@@H]2N1C(=O)NCc1ccccc1 [Compound D-89]
1.7	C=CCN1CC(=O)N2C(Cc3ccc(O)cc3)C(=O)N(Cc3cccc4c(C(=O)Nc5ccc(NCC)nc5)cn(C)c34)CC2N1C(=O)NCc1ccccc1 (stereo not drawn) [Compound G-16]
1.3	C=CCN1CC(=O)N2[C@@H](Cc3ccc(O)cc3)C(=O)N(Cc3cccc4c(-c5ccc(NC(=O)C6CCN(C)CC6)cc5)cn(C)c34)C[C@@H]2N1C(=O)NCc1ccccc1 [Compound D-62]
1.3	C=CCN1CC(=O)N2[C@@H](Cc3ccc(O)cc3)C(=O)N(Cc3cccc4c(-c5ccc(C(=O)N(C)OC)cc5)cn(C)c34)C[C@@H]2N1C(=O)NCc1ccccc1 [Compound D-47]
20.9	C=CCN1CC(=O)N2[C@@H](Cc3ccc(O)cc3)C(=O)N(Cc3cccc4c(C(=O)N5CCN(C6CCCC6)CC5)cn(C)c34)C[C@@H]2N1C(=O)NCc1ccccc1 [Compound E-18]
1.2	C=CCN1CC(=O)N2[C@@H](Cc3ccc(O)cc3)C(=O)N(Cc3cccc4c(C(=O)Nc5ccc(N6CCC(N(C)C)CC6)nc5)cn(C)c34)C[C@@H]2N1C(=O)NCc1ccccc1 [Compound G-45]
1.8	C=CCN1CC(=O)N2[C@@H](Cc3ccc(O)cc3)C(=O)N(Cc3cccc4c(-c5cccc(C(=O)N6CCOCC6)c5)cn(C)c34)C[C@@H]2N1C(=O)NCc1ccccc1 [Compound D-1]
1.37	C=CCN1CC(=O)N2[C@@H](Cc3ccc(O)cc3)C(=O)N(Cc3cccc4c(C(=O)Nc5ccc(N(C)Cc6cncn6C)nc5)cn(C)c34)C[C@@H]2N1C(=O)NCc1ccccc1 [Compound G-34]
1.4	C=CCN1CC(=O)N2[C@@H](Cc3ccc(O)cc3)C(=O)N(Cc3cccc4c(-c5ccc(C(=O)N6CCCCC6)cc5)cn(C)c34)C[C@@H]2N1C(=O)NCc1ccccc1 [Compound D-4]
1.2	C=CCN1CC(=O)N2[C@@H](Cc3ccc(O)cc3)C(=O)N(Cc3cccc4c(-c5ccc(NC(=O)N6CCC(N7CCOCC7)CC6)cc5)cn(C)c34)C[C@@H]2N1C(=O)NCc1ccccc1 [Compound D-64]
2	C=CCN1CC(=O)N2[C@@H](Cc3ccc(O)cc3)C(=O)N(Cc3cccc4c(C(=O)N(C)CC(C)(C)CO)cn(C)c34)C[C@@H]2N1C(=O)NCc1ccccc1 [Compound F-8]
16.4	C=CCN1CC(=O)N2[C@@H](Cc3ccc(O)cc3)C(=O)N(Cc3cccc4c(C(=O)N5CCN(c6ccccc6)CC5)cn(C)c34)C[C@@H]2N1C(=O)NCc1ccccc1 [Compound E-37]
1.6	C=CCN1CC(=O)N2[C@@H](Cc3ccc(O)cc3)C(=O)N(Cc3cccc4c(C(=O)NCc5cccc(N6CCOCC6)n5)cn(C)c34)C[C@@H]2N1C(=O)NCc1ccccc1 [Compound F-50]
3.2	C=CCN1CC(=O)N2[C@@H](Cc3ccc(O)cc3)C(=O)N(Cc3cccc4c(-c5ccc(C(=O)NNCc6ccccc6)cc5)cn(C)c34)C[C@@H]2N1C(=O)NCc1ccccc1 [Compound D-38]
1.3	C=CCN1CC(=O)N2[C@@H](Cc3ccc(O)cc3)C(=O)N(Cc3cccc4c(-c5ccc(NC(=O)N6CC(N7CCOCC7)C6)cc5)cn(C)c34)C[C@@H]2N1C(=O)NCc1ccccc1 [Compound D-66]
9.9	C=CCN1CC(=O)N2[C@@H](Cc3ccc(O)cc3)C(=O)N(Cc3cccc4c(-c5ccc(NC(=O)Nc6ccncn6)cc5)cn(C)c34)C[C@@H]2N1C(=O)NCc1ccccc1 [Compound D-81]
1.5	C=CCN1CC(=O)N2[C@@H](Cc3ccc(O)cc3)C(=O)N(Cc3cccc4c(-c5ccc(C(=O)NC6CCC(N)CC6)cc5)cn(C)c34)C[C@@H]2N1C(=O)NCc1ccccc1 (stereo partly drawn) [Compound D-30]

GI50 [nM]	SMILES
1.5	C=CCN1CC(=O)N2[C@@H](Cc3ccc(O)cc3)C(=O)N(Cc3cccc4c(C(=O)N(C)CCCNC(C)C)cn(C)c34)C[C@@H]2N1C(=O)NCc1ccccc1 [Compound F-19]
10.4	C=CCN1CC(=O)N2[C@@H](Cc3ccc(O)cc3)C(=O)N(Cc3cccc4c(C(=O)N(C)CCNC5CC5)cn(C)c34)C[C@@H]2N1C(=O)NCc1ccccc1 [Compound F-11]
5.8	C=CCN1CC(=O)N2[C@@H](Cc3ccc(O)cc3)C(=O)N(Cc3cccc4c(C(=O)N5CCN(C(=O)OC(C)(C)C)CC5)cn(C)c34)C[C@@H]2N1C(=O)NCc1ccccc1 [Compound E-1]
1.3	C=CCN1CC(=O)N2C(CN(Cc3cccc4c(C(=O)Nc5ccc(N6CCN(C)CC6)cc5)cn(C)c34)C(=O)[C@@H]2Cc2ccc(O)cc2)N1C(=O)NCc1ccccc1 (stereo partly drawn) [Compound G-40]
9.1	C=CCN1CC(=O)N2[C@@H](Cc3ccc(O)cc3)C(=O)N(Cc3cccc4c(C(=O)NCc5ccccn5)cn(C)c34)C[C@@H]2N1C(=O)NCc1ccccc1 [Compound F-42]
1.5	C=CCN1CC(=O)N2[C@@H](Cc3ccc(O)cc3)C(=O)N(Cc3cccc4c(-c5ccc(NC(=O)Nc6ccc(N7CCN(C)CC7)nc6)cc5)cn(C)c34)C[C@@H]2N1C(=O)NCc1ccccc1 [Compound D-78]
9	C=CCN1CC(=O)N2[C@@H](Cc3ccc(O)cc3)C(=O)N(Cc3cccc4c(C(=O)N5CCN(Cc6ccc(C#N)cc6)CC5)cn(C)c34)C[C@@H]2N1C(=O)NCc1ccccc1 [Compound E-33]
3.3	C=CCN1CC(=O)N2[C@@H](Cc3ccc(O)cc3)C(=O)N(Cc3cccc4c(-c5cccc(C(=O)NC6CCCCC6)c5)cn(C)c34)C[C@@H]2N1C(=O)NCc1ccccc1 [Compound D-9]
5.8	C=CCN1CC(=O)N2[C@@H](Cc3ccc(O)cc3)C(=O)N(Cc3cccc4c(-c5ccc(C(=O)NC)o5)cn(C)c34)C[C@@H]2N1C(=O)NCc1ccccc1 [Compound D-101]
5.1	C=CCN1CC(=O)N2[C@@H](Cc3ccc(O)cc3)C(=O)N(Cc3cccc4c(C(=O)N5CCN(Cc6cccc(OC)c6)CC5)cn(C)c34)C[C@@H]2N1C(=O)NCc1ccccc1 [Compound E-35]
1.7	C=CCN1CC(=O)N2C(CN(Cc3cccc4c(C(=O)Nc5ccc(N(C)CCCO)nc5)cn(C)c34)C(=O)[C@@H]2Cc2ccc(O)cc2)N1C(=O)NCc1ccccc1 (stereo partly drawn) [Compound G-20]
1.2	C=CCN1CC(=O)N2[C@@H](Cc3ccc(O)cc3)C(=O)N(Cc3cccc4c(-c5ccc(C(=O)NN6CCOCC6)cc5)cn(C)c34)C[C@@H]2N1C(=O)NCc1ccccc1 [Compound D-43]
2.7	C=CCN1CC(=O)N2[C@@H](Cc3ccc(O)cc3)C(=O)N(Cc3cccc4c(-c5ccc(NC(=O)NC(C)C)nc5)cn(C)c34)C[C@@H]2N1C(=O)NCc1ccccc1 [Compound D-99]
4.9	C=CCN1CC(=O)N2[C@@H](Cc3ccc(O)cc3)C(=O)N(Cc3cccc4c(-c5ccc(NC(=O)Nc6ccc(OC)cc6)nc5)cn(C)c34)C[C@@H]2N1C(=O)NCc1ccccc1 [Compound D-86]
1.9	C=CCN1CC(=O)N2[C@@H](Cc3ccc(O)cc3)C(=O)N(Cc3cccc4c(-c5ccc(NC(=O)CCCNCC(N)=O)cc5)cn(C)c34)C[C@@H]2N1C(=O)NCc1ccccc1 [Compound D-71]
7.4	C=CCN1CC(=O)N2C(CN(Cc3cccc4c(C(=O)Nc5ccc(N)cc5)cn(C)c34)C(=O)[C@@H]2Cc2ccc(O)cc2)N1C(=O)NCc1ccccc1 (stereo partly drawn) [Compound G-8]
8	C=CCN1CC(=O)N2C(CN(Cc3cccc4c(C(=O)Nc5ccc(O)cc5)cn(C)c34)C(=O)[C@@H]2Cc2ccc(O)cc2)N1C(=O)NCc1ccccc1 (stereo partly drawn) [Compound G-2]
4.5	C=CCN1CC(=O)N2[C@@H](Cc3ccc(O)cc3)C(=O)N(Cc3cccc4c(C(=O)NCc5cccc(C)n5)cn(C)c34)C[C@@H]2N1C(=O)NCc1ccccc1 [Compound F-44]
2	C=CCN1CC(=O)N2C(Cc3ccc(O)cc3)C(=O)N(Cc3cccc4c(C(=O)Nc5ccc(N(C)CC(C)C)nc5)cn(C)c34)CC2N1C(=O)NCc1ccccc1 (stereo not drawn) [Compound G-17]
9.3	C=CCN1CC(=O)N2C(CN(Cc3cccc4c(C(=O)Nc5ccc(NCCCO)nc5)cn(C)c34)C(=O)[C@@H]2Cc2ccc(O)cc2)N1C(=O)NCc1ccccc1 (stereo partly drawn) [Compound G-19]

Same assay, conditions: MV-4-11 cells, 72 hours; read-out: MV4-11 GI50

GI50 [nM]	SMILES
5.6	C=CCN1CC(=O)N2[C@@H](Cc3ccc(O)cc3)C(=O)N(Cc3cccc4c(C(=O)N5CCN(Cc6ccccn6)CC5)cn(C)c34)C[C@@H]2N1C(=O)NCc1ccccc1 [Compound E-28]
